Laboratory results reported in US20230096766A1, “AMINO ACID HAVING FUNCTIONAL GROUP CAPABLE OF INTERMOLECULAR HYDROGEN BONDING, PEPTIDE COMPOUND CONTAINING SAME AND METHOD FOR PRODUCTION THEREOF” (Chugai Seiyaku Kabushiki Kaisha, priority 2018, published 2023).
*1 amine or outer side, *2 acyl side, *3 side chain or, on linkers, in order; H or OH if unused. Where a SMILES comes first, the peptide text is derived from it. Bridges are numbered along the chain shown (N, C = ends). [ ]: non-standard residue; d: D form. The star is where a group is joined. X12 = O=C([C@H](CCCC(O)C(F)(F)F)N[*:1])[*:2]; X4 = O=C(C(CCc1noc(=O)[nH]1)N[*:1])[*:2]; Pro(4,4-F2)ψ(CH2) = FC1(F)CN[C@H](C*)C1; Hyp = O=C(O)[C@@H]1C[C@@H](O)CN1; NMeF = CN[C@@H](Cc1ccccc1)C(=O)O; NMeGABA = CN(CCCC(=O)[*:2])[*:1]; CH2CH(OH)CF3 = OC(C*)C(F)(F)F; NMeL = CN[C@@H](CC(C)C)C(=O)O; dNMeL = CN[C@H](CC(C)C)C(=O)O; Butyl(3S-OH) = C[C@H](O)CC*; NMeV = CN[C@H](C(=O)O)C(C)C; NMeAbu = CC[C@H](NC)C(=O)O; Pip = O=C(O)[C@@H]1CCCCN1; NMeA = CN[C@@H](C)C(=O)O; Piperidide = C1CCN(*)CC1; dNMeA = CN[C@H](C)C(=O)O; NBuGly = CCCCNCC(=O)O; Ethyl(2-OH) = OCC*; Sar = CNCC(=O)O; tBu = CC(C)(C)*

Columns and labels:
Caco-2 = conditions: human
[1] = Membrane permeability test of cyclic peptides (Caco-2, modified/improved method of WO 2018/124162); conditions: human
[2] = Caco-2, Caco-2 (membrane permeability), Table 10, cyclic peptides containing Ser(S-4-F2-Pyrro-Me) (G) or Nva(2-R-4-F2-Pyrro) (H)
[3] = Caco-2, Caco-2 (cm/sec), membrane permeability of cyclic peptides, Caco-2

CCCCN1CC(=O)N(C)[C@@H](CC(C)C)C(=O)N[C@@H](COC(C)(C)C)C(=O)N(C)[C@@H](Cc2ccccc2)C(=O)N(C)[C@@H](CC(C)C)C(=O)N[C@H](C(=O)N2CCCCC2)CC(=O)N[C@H](C(C)C)C(=O)N(C)[C@@H](Cc2ccccc2)C(=O)N[C@@H](COCC(O)C(F)(F)F)C(=O)N(C)[C@@H](CC(C)C)C(=O)N[C@@H]([C@@H](C)O)C1=O (stereo partly drawn) [Compound C01] ([dV][NMeF]S(CH2CH(OH)CF3)[NMeL]T[NBuGly][NMeL]S(tBu)[NMeF][NMeL]D-Piperidide; lactam N-11)
Caco-2 (membrane permeability) (Caco-2): 0.15 ×10⁻⁶ cm/s

CCCCN1CC(=O)N(C)[C@@H](CC(C)C)C(=O)N[C@H](C(=O)N2CCCCC2)CC(=O)N(C)[C@@H](CC)C(=O)N[C@@H](CC(C)C)C(=O)N(C)[C@@H](CC(C)C)C(=O)N(C)[C@@H](Cc2ccccc2)C(=O)NC(CCc2noc(=O)[nH]2)C(=O)N(C)[C@@H](CC(C)C)C(=O)N(C)[C@@H](CC(C)C)C(=O)N[C@@H]([C@@H](C)O)C1=O (stereo partly drawn) [pd487] ([NMeAbu]L[NMeL][NMeF][X4][NMeL][NMeL]T[NBuGly][NMeL]D-Piperidide; lactam N-11)
Papp ([1]; Caco-2, Caco-2, Papp, membrane permeability, cyclic peptides comprising MeAbu(pip-4-F2), MeAbu(Mor), Ser(Et-2-Mor), MeAbu(pip-3-F2) or Abu(5-Oxo-Odz) (Table 29)): 2.2 ×10⁻⁶ cm/s

CC[C@H]1C(=O)N[C@@H](COC(C)(C)C)C(=O)N(C)[C@@H](CC(C)C)C(=O)N[C@@H](COC[C@@H]2CC(F)(F)CN2)C(=O)N(C)[C@@H](CC(C)C)C(=O)N(C)[C@@H](CC(C)C)C(=O)N[C@H](C(=O)N2CCCCC2)CC(=O)N(C)CCCC(=O)N(C)[C@@H](CC(C)C)C(=O)N[C@@H](C(C)C)C(=O)N(C)[C@@H](Cc2ccccc2)C(=O)N1C [Compound G09] ([NMeGABA][NMeL]V[NMeF][NMeAbu]S(tBu)[NMeL]S(Pro(4,4-F2)ψ(CH2))[NMeL][NMeL]D-Piperidide; lactam N-11)
Papp [1, 2]: 1.2 ×10⁻⁶ cm/s

CC(C)C[C@@H]1NC(=O)[C@@H]2CCCCN2C(=O)[C@H](Cc2ccccc2)NC(=O)[C@H](C(C)C)N(C)C(=O)[C@H](CC(C)C)N(C)C(=O)[C@H]([C@@H](C)O)NC(=O)[C@H](CC(C)C)N(C)C(=O)[C@@H]2C[C@@H](OCCO)CN2C(=O)[C@H](CC(C)C)N(C)C(=O)[C@@H](CC(C)C)N(C)C(=O)C[C@@H](C(=O)N2CCCCC2)NC1=O [AP236] ([dNMeL][NMeL][Hyp](Ethyl(2-OH))[NMeL]T[NMeL][NMeV]F[Pip]LD-Piperidide; lactam N-11)
Papp [1, 3]: 3.8 ×10⁻⁶ cm/s

CCCCN1CC(=O)N(C)[C@@H](CC(C)C)C(=O)N[C@H](C(=O)N2CCCCC2)CC(=O)N(C)[C@@H](C(C)C)C(=O)N[C@@H](CC(C)C)C(=O)N(C)[C@@H](CC(C)C)C(=O)N(C)[C@@H](Cc2ccccc2)C(=O)N[C@@H](COCC[C@H](C)O)C(=O)N(C)[C@@H](Cc2ccccc2)C(=O)N(C)[C@@H](C(C)C)C(=O)N[C@@H]([C@@H](C)O)C1=O [AP107] ([NMeV]L[NMeL][NMeF]S(Butyl(3S-OH))[NMeF][NMeV]T[NBuGly][NMeL]D-Piperidide; lactam N-11)
Papp [1, 3]: 0.93 ×10⁻⁶ cm/s

CC[C@H](C)[C@@H]1NC(=O)[C@@H](C)N(C)C(=O)C[C@@H](C(=O)N(C)[C@@H](Cc2ccccc2)C(=O)N[C@@H](C)C(=O)N2CCCCC2)NC(=O)[C@H](Cc2ccccc2)N(C)C(=O)CN(C)C(=O)[C@H]([C@@H](C)O)NC(=O)[C@H](C)N(C)C(=O)[C@H](C(C)C)N(C)C(=O)[C@H](Cc2ccccc2)NC(=O)[C@H](CC(C)C)N(C)C(=O)[C@H](CC(C)C)N(C)C1=O [pd222] ([dNMeA]I[NMeL][NMeL]F[NMeV][NMeA]T[Sar][NMeF]D[NMeF]A-Piperidide; lactam N-11)
Papp ([1]; Caco-2, Caco-2 (cm/sec), Table 36, Papp, sequences having Papp ≥ 1.0 × 10^−6 at ARC = 3): 1.1 ×10⁻⁶ cm/s

CC[C@H](C)[C@@H]1NC(=O)[C@H](CC(C)C)N(C)C(=O)[C@H](COC(C)(C)C)NC(=O)[C@H](Cc2ccccc2)N(C)C(=O)[C@H](Cc2ccccc2)N(C)C(=O)[C@H](CCCC(O)C(F)(F)F)NC(=O)[C@H](CC)N(C)C(=O)CCCN(C)C(=O)C[C@@H](C(=O)N2CCCCC2)NC(=O)[C@H](CC(C)C)N(C)C(=O)[C@H](CC(C)C)N(C)C1=O (stereo partly drawn) [Compound D13] ([NMeGABA][NMeAbu][X12][NMeF][NMeF]S(tBu)[NMeL]I[NMeL][NMeL]D-Piperidide; lactam N-11)
Papp ([1]; Caco-2, Caco-2 (membrane permeability), Table 6, cyclic peptides containing Ser(1-CF3-EtOH) (C) or Hnl(7-F3-6-OH) (D)): 0.14 ×10⁻⁶ cm/s

CCCCN1CC(=O)N(C)[C@@H](CC(C)C)C(=O)N[C@H](C(=O)N2CCCCC2)CC(=O)N(C)[C@@H](CC)C(=O)N[C@@H](CC(C)C)C(=O)N(C)[C@@H](CC(C)C)C(=O)N(C)[C@@H](Cc2ccccc2)C(=O)N[C@@H](COC[C@@H]2CC(F)(F)CN2)C(=O)N(C)[C@@H](CC)C(=O)N(C)[C@@H](CC(C)C)C(=O)N[C@@H]([C@@H](C)O)C1=O [Compound G04] ([NMeAbu]L[NMeL][NMeF]S(Pro(4,4-F2)ψ(CH2))[NMeAbu][NMeL]T[NBuGly][NMeL]D-Piperidide; lactam N-11)
Papp [1, 2]: 1.8 ×10⁻⁶ cm/s
